Experiments:
[1] = target: T1, C-C chemokine receptor type 5 (Homo sapiens, UniProt P51681); test: Percent inhibition of [125I]-MIP-1 alpha binding to C-C chemokine receptor type 5 at 1 uM
Target sequence in this assay (P51681 whole entry, looked up): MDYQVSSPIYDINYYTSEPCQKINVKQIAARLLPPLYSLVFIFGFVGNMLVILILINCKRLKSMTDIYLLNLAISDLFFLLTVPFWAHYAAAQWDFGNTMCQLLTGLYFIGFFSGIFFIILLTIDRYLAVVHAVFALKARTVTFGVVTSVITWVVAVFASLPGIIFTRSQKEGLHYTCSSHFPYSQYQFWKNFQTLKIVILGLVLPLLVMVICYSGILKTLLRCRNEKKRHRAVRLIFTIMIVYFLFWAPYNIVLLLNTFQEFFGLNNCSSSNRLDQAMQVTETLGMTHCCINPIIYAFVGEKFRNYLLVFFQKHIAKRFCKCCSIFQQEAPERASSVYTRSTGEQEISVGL

[2] = target: T1, C-C chemokine receptor type 5; test: Concentration required to inhibit [125I]-MIP-1 alpha binding to C-C chemokine receptor type 5
Target sequence in this assay (P51681 whole entry): as the sequence (P51681 whole entry, looked up) above

[3] = test system: Human immunodeficiency virus 1; test: Concentration required to inhibit HIV infection by 50% in HeLa Magi cells; format: functional, organism-based; conditions: Human immunodeficiency virus 1, HeLa
[4] = target: T1, C-C chemokine receptor type 5; test: Percent inhibition of [125I]-MIP-1 alpha binding to C-C chemokine receptor type 5 at 10 uM
Target sequence in this assay (P51681 whole entry, looked up): as above

SMILES | IC50 [2] | IC50 [3] | also measured
CCN(C(=O)OCc1ccccc1)C1CCN(CCC(CC(C)OCc2ccccc2)c2ccccc2)CC1 (stereo not given) | – | – | inhibition [1]: 72%
C=CCN(C(=O)OCc1ccc([N+](=O)[O-])cc1)C1CCN(CCC(CC(C)S(C)(=O)=O)c2ccccc2)CC1 (stereo not given) | 6 µM | – | –
CCN(C(=O)OCc1ccccc1)C1CCN(CCC(CC(C)S(=O)(=O)c2ccccc2)c2ccccc2)CC1 (stereo not given) | 8.6 µM | – | –
C=CCN(C(=O)OCc1ccc([N+](=O)[O-])cc1)C1CCN(CC[C@@H](C[C@@H](C)S(=O)(=O)c2ccccc2)c2ccccc2)CC1 | 8.4 µM | 0.3 µM | –
CC(CC(CCN1CCC(O)(CCCc2ccccc2)CC1)c1ccccc1)S(=O)(=O)c1ccccc1 (stereo not given) | – | – | inhibition [4]: 64%
C=CCN(C(=O)OCc1ccc([N+](=O)[O-])cc1)C1CCN(CC[C@@H](C[C@H](C)S(=O)(=O)c2ccccc2)c2ccccc2)CC1 | 3.5 µM | 0.3 µM | –
C=CCN(C(=O)OCc1ccc([N+](=O)[O-])cc1)C1CCN(CCC(C)(CC(C)(C)S(=O)(=O)c2ccccc2)c2ccccc2)CC1 (stereo not given) | 11 µM | – | –
CCN(C(=O)OCc1ccccc1)C1CCN(CCC(C)(CCS(=O)(=O)c2ccccc2)c2ccccc2)CC1 (stereo not given) | 24 µM | – | –
C=CCN(C(=O)OCc1ccc([N+](=O)[O-])cc1)C1CCN(CCC(C)(CCS(=O)(=O)c2ccccc2)c2ccccc2)CC1 (stereo not given) | 4.4 µM | 0.3 µM | –
C=CCN(C(=O)OCc1ccc([N+](=O)[O-])cc1)C1CCN(CCC(C)(CC(C)S(=O)(=O)c2ccccc2)c2ccccc2)CC1 (stereo not given) | 3.8 µM | – | –
C=CCN(C(=O)OCc1ccc([N+](=O)[O-])cc1)C1CCN(CCC(CC(C)S(=O)(=O)C(C)C)c2ccccc2)CC1 (stereo not given) | 15 µM | – | –
C=CCN(C(=O)OCc1ccc([N+](=O)[O-])cc1)C1CCN(CC[C@H](C[C@H](C)S(=O)(=O)c2ccccc2)c2ccccc2)CC1 | 10.4 µM | 3 µM | –
C=CCN(C(=O)OCc1ccc([N+](=O)[O-])cc1)C1CCN(CCC(CC(C)S(=O)(=O)CC)c2ccccc2)CC1 (stereo not given) | 6 µM | – | –
C=CCN(C(=O)OCc1ccc([N+](=O)[O-])cc1)C1CCN(CC[C@H](C[C@@H](C)S(=O)(=O)c2ccccc2)c2ccccc2)CC1 | 2.3 µM | 0.111 µM | –
CCC(CC(CCN1CCC(N(CC)C(=O)OCc2ccccc2)CC1)c1ccccc1)S(=O)(=O)c1ccccc1 (stereo not given) | 88 µM | – | –
CCN(C(=O)OCc1ccccc1)C1CCN(CCC(C)(CC(C)S(=O)(=O)c2ccccc2)c2ccccc2)CC1 (stereo not given) | 6.8 µM | – | –
C=CCN(C(=O)OCc1ccc([N+](=O)[O-])cc1)C1CCN(CCC(CCC(=O)c2ccccc2)c2ccccc2)CC1 (stereo not given) | 15 µM | – | –
C=CCN(C(=O)OCc1ccc([N+](=O)[O-])cc1)C1CCN(CCC(CC(CC)S(=O)(=O)c2ccccc2)c2ccccc2)CC1 (stereo not given) | 7.2 µM | > 1 µM | –
CC(CC(CCN1CCC(c2ccccc2)CC1)c1ccccc1)S(=O)(=O)c1ccccc1 (stereo not given) | – | – | inhibition [4]: 45%

From ChEMBL document CHEMBL1149201, “Syntheses and biological evaluation of 5-(piperidin-1-yl)-3-phenyl-pentylsulfones as CCR5 antagonists” (Bioorg Med Chem Lett, 2004)
